Patent US11369565B2, “Amino-pyrimidine skeletal muscle modulators” (Cytokinetics, Inc., priority 2010, dated 2022)

System: rabbit skeletal myofibrils (approximately 90% fast fibers)
Experiment: Activation of fast skeletal myofibrils (PUMA coupled-enzyme ATPase assay at pCa25)
Type: biochemical
Conditions: concentration at which the compound increased the enzymatic activity by 40%; calcium at pCa25; PM12 buffer pH 6.8
Summary of the method: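 Detergent-washed rabbit psoas myofibrils tested at calcium giving 25% of maximal rate (pCa25). ATPase activity tracked by pyruvate kinase/lactate dehydrogenase coupling, NADH oxidation read as absorbance at 340 nm, in PM12 buffer (12 mM Pipes, 2 mM MgCl2, 1 mM DTT, pH 6.8).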

Compound	Mean AC1.4
CNC(=O)c1ccnc(-c2cnc(NC[C@]3(c4ncccc4F)C[C@H](F)C3)nc2)c1 [{2-[2-({[3-fluoro-1-(3-fluoro(2-pyridyl))cyclobutyl]methyl}amino)pyrimidin-5-yl](4-pyridyl)}-N-methylcarboxamide]	B (B=1-10 uM)
CNC(=O)c1ccnc(-c2cnc(NC[C@]3(c4ncccc4F)C[C@H](F)C3)nc2)n1 [{2-[2-({[3-fluoro-1-(3-fluoro(2-pyridyl))cyclobutyl]methyl}amino)pyrimidin-5-yl]pyrimidin-4-yl}-N-methylcarboxamide]	B (B=1-10 uM)
O=C(NC1CC(O)C1)c1cccc(-c2cnc(NC[C@]3(c4ncccc4F)C[C@H](F)C3)nc2)c1 (stereo partly shown) [{3-[2-(([3-fluoro-1-(3-fluoro(2-pyridyl))cyclobutyl]methyl}amino)pyrimidin-5-yl]phenyl}-N-(3-hydroxycyclobutyl)carboxamide]	B (B=1-10 uM)
CNC(=O)c1cccc(-c2cnc(NC[C@]3(c4ncccc4F)C[C@H](F)C3)nc2)c1O [{3-[2-({[3-fluoro-1-(3-fluoro(2-pyridyl))cyclobutyl]methyl}amino)pyrimidin-5-yl]-2-hydroxyphenyl}-N-methylcarboxamide]	B (B=1-10 uM)
CNC(=O)c1ccc(O)c(-c2cnc(NC[C@]3(c4ncccc4F)C[C@H](F)C3)nc2)c1 [{3-[2-({[3-fluoro-1-(3-fluoro(2-pyridyl))cyclobutyl]methyl}amino)pyrimidin-5-yl]-4-hydroxyphenyl}-N-methylcarboxamide]	A (A=<1 uM)
CN1CC(NC(=O)c2cccc(-c3cnc(NC[C@]4(c5ncccc5F)C[C@H](F)C4)nc3)c2)C1 [{3-[2-({[3-fluoro-1-(3-fluoro(2-pyridyl))cyclobutyl]methyl}amino)pyrimidin-5-yl]phenyl}-N-(1-methylazetidin-3-yl)carboxamide]	A (A=<1 uM)
CS(=O)(=O)NC(=O)c1cccc(-c2cnc(NCC3(c4ncccc4F)CC(F)C3)nc2)c1 (stereo not shown) [{3-[2-({[3-fluoro-1-(3-fluoro(2-pyridyl))cyclobutyl]methyl}amino)pyrimidin-5-yl]phenyl}-N-(methylsulfonyl)carboxamide]	A (A=<1 uM)
CS(=O)(=O)N1CC(NC(=O)c2cccc(-c3cnc(NC[C@]4(c5ncccc5F)C[C@H](F)C4)nc3)c2)C1 [{3-[2-({[3-fluoro-1-(3-fluoro(2-pyridyl))cyclobutyl]methyl}amino)pyrimidin-5-yl]phenyl}-N-[1-(methylsulfonyl)azetidin-3-yl]carboxamide]	B (B=1-10 uM)
CNC(=O)c1cccc(-c2cnc(NC[C@]3(c4ncccc4F)C[C@H](F)C3)nc2)c1 [{3-[2-({[3-fluoro-1-(3-fluoro(2-pyridyl))cyclobutyl]methyl}amino)pyrimidin-5-yl]phenyl}-N-methylcarboxamide]	B (B=1-10 uM)
CNC(=O)c1cccc(-c2cnc(NCC3(c4ncccc4F)CCC3)nc2)c1 [{3-[2-({[(3-fluoro(2-pyridyl))cyclobutyl]methyl)amino)pyrimidin-5-yl]phenyl}-N-methylcarboxamide]	B (B=1-10 uM)
CNC(=O)c1ccc(O)c(-c2cnc(NCC3(c4ncccc4F)CCC3)nc2)c1 [{3-[2-({[(3-fluoro(2-pyridyl))cyclobutyl]methyl}amino)pyrimidin-5-yl]-4-hydroxyphenyl}-N-methylcarboxamide]	B (B=1-10 uM)
O=C(NC1CC(O)C1)c1ccc(F)c(-c2cnc(NC[C@]3(c4ncccc4F)C[C@H](F)C3)nc2)c1 (stereo partly shown) [{4-fluoro-3-[2-({[3-fiuoro-1-(3-fluoro(2-pyridyl))cyclobutyl]methyl}amino)pyrimidin-5-yl]phenyl}-N-(3-hydroxycyclobutyl)carboxamide]	A (A=<1 uM)
CS(=O)(=O)N1CC(NC(=O)c2ccc(F)c(-c3cnc(NC[C@]4(c5ncccc5F)C[C@H](F)C4)nc3)c2)C1 [{4-fluoro-3-[2-({[3-fluoro-1-(3-fluoro(2-pyridyl))cyclobutyl)]methyl}amino)pyridin-5-yl]phenyl}-N-[1-(methylsulfonyl)azetidin-3-yl]carboxamide]	6 µM
CN1CC(NC(=O)c2ccc(F)c(-c3cnc(NC[C@]4(c5ncccc5F)C[C@H](F)C4)nc3)c2)C1 [{4-fluoro-3-[2-({[3-fluoro-1-(3-fluoro(2-pyridyl))cyclobutyl]methyl}amino)pyrimidin-5-yl]phenyl}-N-(1-methylazetidin-3-yl)carboxamide]	B (B=1-10 uM)
CNC(=O)c1ccc(F)c(-c2cnc(NC[C@]3(c4ncccc4F)C[C@H](F)C3)nc2)c1 [{4-fluoro-3-[2-({[3-fluoro-1-(3-fluoro(2-pyridyl))cyclobutyl]methyl}amino)pyrimidin-5-yl]phenyl}-N-methylcarboxamide]	A (A=<1 uM)
CNC(=O)c1ccc(F)c(-c2cnc(NCC3(c4ncccc4F)CCC3)nc2)c1 [{4-fluoro-3-[2-({[(3-fluoro(2-pyridyl))cyclobutyl]methyl}amino)pyrimidin-5-yl]phenyl}-N-methylcarboxamide]	B (B=1-10 uM)
CC(C)(Nc1ncc(-c2nc(CN)cs2)cn1)c1ncccc1F [{5-[4-(aminomethyl)(1,3-thiazol-2-yl)]pyrimidin-2-yl}[1-(3-fluoro(2-pyridyl))-isopropyl]amine]	D (D=>20 uM)
CC(C)(Nc1ncc(-c2ncc(CN)s2)cn1)c1ncccc1Cl [{5-[5-(aminomethyl)(1,3-thiazol-2-yl)]pyrimidin-2-yl}[1-(3-chloro(2-pyridyl))-isopropyl]amine]	D (D=>20 uM)
CC(C)(Nc1ncc(-c2ncc(CN)s2)cn1)c1ncccc1F [{5-[5-(aminomethyl)(1,3-thiazol-2-yl)]pyrimidin-2-yl}[1-(3-fluoro(2-pyridyl))-isopropyl]amine]	D (D=>20 uM)

Compound	Mean AC1.4
NCc1cnc(-c2cnc(NCC3(c4ncccc4Cl)CCC3)nc2)s1 [{5-[5-(aminomethyl)(1,3-thiazol-2-yl)]pyrimidin-2-yl}{[3-chloro(2-pyridyl))cyclobutyl]methyl)amine]	B (B=1-10 uM)
NCc1cnc(-c2cnc(NCC3(c4ncccc4F)CCC3)nc2)s1 [{5-[5-(aminomethyl)(1,3-thiazol-2-yl)]pyrimidin-2-yl}{[(3-fluoro(2-pyridyl))cyclobutyl]methyl}amine]	C (C=10-20 uM)
O=C(Nc1cnc(NCC2(c3ncccc3F)CCC2)nc1)Nc1nccs1 [{[2-({[(3-fluoro(2-pyridyl))cyclobutyl]methyl}amino)pyrimidin-5-yl]amino}-N-(1,3-thiazol-2-yl)carboxamide]	B (B=1-10 uM)
COc1nc(NC[C@]2(c3ncccc3F)C[C@@H](F)C2)ncc1-c1ccccc1 [{[3-fluoro-1-(3-fluoro(2-pyridyl))cyclobutyl]methyl)(4-methoxy-5-phenylpyrimidin-2-yl)amine]	B (B=1-10 uM)
COc1ncc(-c2cnc(NC[C@]3(c4ncccc4F)C[C@H](F)C3)nc2)cn1 [{[3-fluoro-1-(3-fluoro(2-pyridyl))cyclobutyl]methyl} [5-(2-methoxypyrimidin-5-yl)pyrimidin-2-yl]amine]	D (D=>20 uM)
COc1ccc(-c2cnc(NC[C@]3(c4ncccc4F)C[C@H](F)C3)nc2)cn1 [{[3-fluoro-1-(3-fluoro(2-pyridyl))cyclobutyl]methyl} [5-(6-methoxy(3-pyridyl))pyrimidin-2-yl]amine]	D (D=>20 uM)
COc1nc(NC[C@]2(c3ncccc3F)C[C@H](F)C2)ncc1-c1ccccc1 [{[3-fluoro-1-(3-fluoro(2-pyridyl))cyclobutyl]methyl}(4-methoxy-5-phenylpyrimidin-2-yl)amine]	B (B=1-10 uM)
COc1nc(N(C)C[C@]2(c3ncccc3F)C[C@H](F)C2)ncc1-c1ccccc1 [{[3-fluoro-1-(3-fluoro(2-pyridyl))cyclobutyl]methyl}(4-methoxy-5-phenylpyrimidin-2-yl)methylamine]	D (D=>20 uM)
COc1ccnc(NC[C@]2(c3ncccc3F)C[C@H](F)C2)n1 [{[3-fluoro-1-(3-fluoro(2-pyridyl))cyclobutyl]methyl}(4-methoxypyrimidin-2-yl)amine]	D (D=>20 uM)
CNc1nc(NC[C@]2(c3ncccc3F)C[C@H](F)C2)ncc1-c1ccccc1 [{[3-fluoro-1-(3-fluoro(2-pyridyl))cyclobutyl]methyl}[4-(methylamino)-5-phenylpyrimidin-2-yl]amine]	D (D=>20 uM)
Fc1ccccc1-c1cnc(NC[C@]2(c3ncccc3F)C[C@H](F)C2)nc1 [{[3-fluoro-1-(3-fluoro(2-pyridyl))cyclobutyl]methyl}[5-(2-fluorophenyl)pyrimidin-2-yl]amine]	A (A=<1 uM)
COc1ccc(C)nc1-c1cnc(NC[C@]2(c3ncccc3F)C[C@H](F)C2)nc1 [{[3-fluoro-1-(3-fluoro(2-pyridyl))cyclobutyl]methyl}[5-(3-methoxy-6-methyl(2-pyridyl))pyrimidin-2-yl]amine]	C (C=10-20 uM)
COc1ccc(-c2cnc(NC[C@]3(c4ncccc4F)C[C@H](F)C3)nc2)nn1 [{[3-fluoro-1-(3-fluoro(2-pyridyl))cyclobutyl]methyl}[5-(6-methoxypyridazin-3-yl)]pyrimidin-2-yl]amine]	D (D=>20 uM)
Fc1cccnc1[C@]1(CNc2ncccn2)C[C@@H](F)C1 [{[3-fluoro-1-(3-fluoro(2-pyridyl))cyclobutyl]methyl}pyrimidin-2-ylamine]	D (D=>20 uM)
Clc1cccnc1C1(CNc2ncccn2)CCC1 [{[(3-chloro(2-pyridyl))cyclobutyl]methyl}pyrimidin-2-ylamine]	D (D=>20 uM)
Fc1cccnc1C1(CNc2ncc(-c3ncc[nH]3)cn2)CCC1 [{[(3-fluoro(2-pyridyl))cyclobutyl]methyl}(5-imidazol-2-ylpyrimidin-2-yl)amine]	C (C=10-20 uM)
N-(2-aminoethyl)[2-({[(3-fluoro(2- pyridyl))cyclobutyl]methyl}amino) pyrimidin-5-yl]carboxamide	D (D=>20 uM)
[5-(2-{[1-(3-chloro(2-pyridyl))- isopropyl}amino}pyrimidin-5-yl)(1H- indazol-3-yl)]methylsulfonyl)amine	A (A=<1 uM)
